Reference: US20260125736A1, “FURIN SENSORS AND APPLICATIONS THEREOF” (FLAREON BIOTECH GMBH, priority 2023, published 2026)
Primed or numbered codes have the meaning given here. Ends that are not written are not given here. * marks the point of attachment. Dabcyl′ = 4-((4-(dimethylamino)phenyl)azo)benzoic acid, CN(C)c1ccc(/N=N/c2ccc(C(=O)*)cc2)cc1; EDANS = O=S(=O)(O)c1cccc2c(NCCN*)cccc12

Legend:
HNSCC tissue = type: cell-based, human
furin [1] = biological target: T1, furin (Homo sapiens, UniProt P09958); assay: Cleavage of FRET sensors by furin / illumination of C1S; type: biochemical; settings: C1S 10 μM incubated with furin for 60 min, illuminated at 350 nm; compared with C1S without furin
T1 sequence (P09958 108-794): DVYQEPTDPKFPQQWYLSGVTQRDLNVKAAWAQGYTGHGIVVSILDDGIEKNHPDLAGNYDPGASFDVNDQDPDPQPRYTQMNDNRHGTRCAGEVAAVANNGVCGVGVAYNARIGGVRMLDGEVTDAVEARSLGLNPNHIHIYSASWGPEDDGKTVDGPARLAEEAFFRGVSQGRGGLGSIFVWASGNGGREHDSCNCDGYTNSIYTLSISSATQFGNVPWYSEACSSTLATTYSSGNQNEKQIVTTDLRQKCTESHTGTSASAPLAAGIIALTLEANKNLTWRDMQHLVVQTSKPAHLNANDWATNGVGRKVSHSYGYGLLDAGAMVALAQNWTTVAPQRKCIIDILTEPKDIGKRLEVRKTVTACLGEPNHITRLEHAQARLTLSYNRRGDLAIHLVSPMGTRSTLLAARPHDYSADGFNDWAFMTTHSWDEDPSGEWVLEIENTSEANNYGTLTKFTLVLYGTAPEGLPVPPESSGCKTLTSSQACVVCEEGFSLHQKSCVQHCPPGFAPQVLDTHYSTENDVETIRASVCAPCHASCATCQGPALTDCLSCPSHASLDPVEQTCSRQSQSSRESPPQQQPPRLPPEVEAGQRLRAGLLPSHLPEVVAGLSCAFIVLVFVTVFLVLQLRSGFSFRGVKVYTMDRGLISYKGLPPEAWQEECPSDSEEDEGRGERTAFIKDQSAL
Description: Negative controls were performed without furin. Experiments were performed n=3. The samples were analyzed using an Infinite M plex (Tecan trading AG, Mannedorf, Switzerland) with an excitation wavelength of λ=340 nm and an emission wavelength of A =490 nm.
Sensor C1S was incubated as described before under cleavage of FRET sensors with and without furin for 60 min and illuminated via Universal UV Lampe (CAMAG, Germany) with λ=350 nm.

HNSCC tumor tissue = assay: FRET-based sensor tissue incubation (fluorescence, ex 340 nm / em 490 nm); type: cell-based, human; settings: 10 μM sensor, incubation over 60 min, 37° C., cleavage determined against blank (intact sensor)
Description: All included patients were diagnosed with primary oral squamous cell carcinoma (OSCC). Patients suffering from other tumor entities as well as inoperable cases were excluded from this study.
After performing preoperative tumor staging and incisional biopsy to confirm the diagnosis, stage-appropriate tumor resection, lymph-node dissection, and reconstruction took place. Tumor resection was performed in the usual way, which included using separate margins for frozen section analysis in order to confirm in sano resection. […]
Tissues were stored on ice in sterile filtered in cell culture medium (RPMI-1640, Dutch modification, 10% FCS, 1% Penicillin/Streptomycin, Nystatin). […] After the 24h incubation, one of the tumor tissues was analyzed using FDA. […] The tumor tissue was incubated for 5 min and analyzed via Axio Observer.Z1 microscope equipped with an A-Plan 10×/0.25 Ph1 objective (Zeiss), 38 HE Green Fluorescent Protein (λex=450-490 nm, λem=500-550 nm) and a mercury vapor short-arc lamp.
Tissues were prepared as described before. […] The tissues were incubated at 37° C. and analyzed at t=0, 5, 10, 15, 20, 25, 30, 40, 50 and 60 min via an Infinite M plex (Tecan trading AG, Mannedorf, Switzerland) with an excitation wavelength of λ=340 nm and an emission wavelength of λ=490 nm. […]

furin [2] = biological target: T1, furin; assay: Peptide cleavage by furin, analysed by HPLC (AUC of main peak vs negative control without furin); settings: cleavage of PSL via furin within 15 min; 0.1 mM peptide, 1 U furin, 37° C., n=3
Description: Lyophilized peptides were solubilized in furin buffer (100 mM HEPES pH 7.5, 5 mM CaCl2) to 1 mM stock solutions. Cleavage was performed at 37° C. under rigorous shaking in 30 μL furin buffer containing 0.1 mM of the respective peptide and 1 U furin per reaction. The reaction was stopped via addition of 5 mM EDTA final concentration. Experiments were performed n=3.
Analytical HPLC was carried out via an Agilent 1260 infinity II HPLC (Agilent Technologies Inc., Waldbronn, Germany) using a Zorbax 300SB-CN 5 μm analytical 4.6×150 mm LC column (Agilent Technologies Inc., Waldbronn, Germany) The device was equipped with a diode array detector (G7115A, Agilent), a fluorescence detector (G7121A, Agilent), an automatic vial sampler (G7129C, Agilent), flexible Pump (G7104C, Agilent), and multicolumn oven (G7116A, Agilent). Mobile phase A was 0.1% TFA in Millipore water. Mobile phase B was ACN with 0.1% TFA, flow was set to 1 ml/min, injection volume was 15 μl, and the wavelength of the detector was set to A=214 nm. […]
Cleavage percent was analyzed by comparing the area under the curve (AUC) of the main peak from the respective peptide incubated with furin, compared to a negative control without furin.

Substance	time after which a fluorescent signal difference between HNSCC and healthy tissue is visually recognizable (HNSCC tissue) [min]	visual difference between healthy and HNSCC tissues in the first 30 minutes (HNSCC tissue)	fluorescence observed visually after incubation with furin (furin [1])	fold increase of sensor cleavage of the tumor tissue compared to healthy tissue (HNSCC tumor tissue) [fold]	Cleavage (furin [2]) [%]
Ac-EG-K(Dabcyl)-RTAMTAGA-E(Edans)-GE (Ac-EGK(Dabcyl′)RTAMTAGAE(EDANS)GE) [Z3S]	35	no difference could be observed			
Ac-K(Dabcyl)-RRARSVAS-E(Edans) (Ac-K(Dabcyl′)RRARSVASE(EDANS)) [C1S]	5		distinct cyan fluorescence	> 2	
RTAMSAGA [Z5]					26.16
